Assay results reported in paper PMC6630832, “3-Vinylazetidin-2-Ones: Synthesis, Antiproliferative and Tubulin Destabilizing Activity in MCF-7 and MDA-MB-231 Breast Cancer Cells” (Pharmaceuticals, 2019).
Where two headings read alike, the source gives them in different places.

Columns and labels:
U251 = assay: NCI60 screen (SRB), CNS Cancer; assay type: cell-based; settings: Homo sapiens, U-251
M14 = assay: NCI60 screen (SRB), Melanoma; assay type: cell-based; settings: Homo sapiens
SF-268 = assay: NCI60 screen (SRB), CNS Cancer; assay type: cell-based; settings: Homo sapiens
SNB-75 = assay: NCI60 screen (SRB), CNS Cancer; assay type: cell-based; settings: Homo sapiens
MALME-3M = assay: NCI60 screen (SRB), Melanoma; assay type: cell-based; settings: Homo sapiens
SW-620 = assay: NCI60 screen (SRB), Colon Cancer; assay type: cell-based; settings: Homo sapiens
MDA-MB-435 = assay: NCI60 screen (SRB), Melanoma; assay type: cell-based; settings: Homo sapiens
786-0 = assay: NCI60 screen (SRB), Renal cancer; assay type: cell-based; settings: Homo sapiens
T-47D = assay: NCI60 screen (SRB), Breast cancer; assay type: cell-based; settings: Homo sapiens, T47D
[1] = HPLC stability study in phosphate buffers; assay type: physicochemical; settings: phosphate buffer, read-out: half-life (t½)
Method: Analytical high-performance liquid chromatography (HPLC) stability studies were performed using a Symmetry® column (C18, 5 µm, 4.6 × 150 mm), a Waters 2487 Dual Wavelength Absorbance detector, a Waters 1525 binary HPLC pump and a Waters 717 plus Autosampler (Waters Corporation, 34 Maple St, Milford, MA, USA). Samples were detected at wavelength of 254 nm. All samples were analysed using acetonitrile (80%) and water (20%) as the mobile phase over 10 min and a flow rate of 1 mL/min. Stock solutions were prepared by dissolving 5 mg of compound 7s, 17b and 17c in 10 mL of mobile phase. Phosphate buffers at the desired pH values (4, 7.4 and 9) were prepared in accordance with the British Pharmacopoeia monograph 2015. 30 µL of stock solution was diluted with 1 mL of appropriate buffer, shaken and injected immediately. Samples were withdrawn and analysed at time intervals of t = 0 min, 5 min, 30 min, 60 min, 90 min, 120 min, 24 h and 48 h. Plasma stability studies: 360 µL stock solution of compounds 7s, 17b and 17c were transferred to buffered plasma (plasma: buffer = 1:9, 4 mL in total) at 37 °C in screw cap container. Immediately a 250 µL aliquot was withdrawn and added to the Eppendorf tube containing 500 µL ZnSO4.7H2O solution (2% w/v ZnSO4 solution in acetonitrile: water, 1:1). The samples were then centrifuged at 10,000 rpm for 3 min and filtered through a 0.2-micron filter and injected according to the HPLC conditions listed above. Further samples were taken in the same manner every 1 h thereafter up to 6 h. A final sample was taken after 24 h. Whole blood stability studies. A 360 µL aliquot of stock solution of compounds 17b and 17c in acetonitrile was added in whole blood (4 mL, treated with 2% sodium citrate) at 37 °C and 300 µL aliquots were withdrawn at approptiate intervals. Samples were transferred to 1.5 mL Eppenddorf tubes containing 1 mL of ZnSO4. 7H2O solution (2% w/v ZnSO4 solution in acetonitrile: water, 1:1), vortexed and then centrifuged for 5 min at 14,000 rpm. The sample filtered through a 0.2-micron filter and injected according to the HPLC conditions listed above.

RPMI-8226 = assay: NCI60 screen (SRB), Leukemia; assay type: cell-based; settings: Homo sapiens
HL-60(TB) = assay: NCI60 screen (SRB), Leukemia; assay type: cell-based; settings: Homo sapiens; NCI60 Leukemia cell line HL-60(TB)
OVCAR-8 = assay: NCI60 screen (SRB), Ovarian cancer; assay type: cell-based; settings: Homo sapiens
[2] = NCI60 CNS Cancer cell line U251, read-out: GI50
[3] = NCI60 Melanoma cell line M14, read-out: GI50
[4] = NCI60 CNS Cancer cell line SF-268, read-out: GI50
[5] = NCI60 CNS Cancer cell line SNB-75, read-out: GI50
[6] = NCI60 Melanoma cell line MALME-3M, read-out: GI50
[7] = NCI60 Colon Cancer cell line SW-620, read-out: GI50
[8] = NCI60 Melanoma cell line MDA-MB-435, read-out: GI50
[9] = NCI60 Renal cancer cell line 786-0, read-out: GI50
[10] = NCI60 Breast cancer cell line T-47D, read-out: GI50
[11] = NCI60 Leukemia cell line RPMI-8226, read-out: GI50
[12] = NCI60 Ovarian cancer cell line OVCAR-8, read-out: GI50

SMILES	GI50 (U251)	GI50 (M14; M14)	GI50 (SF-268; SF-268)	GI50 (SNB-75; SNB-75)	GI50 (MALME-3M; Malme-3M)	GI50 (SW-620; SW-620)	GI50 (MDA-MB-435; MDA-MB-435)	GI50 (U251; [2])	half-life at 14.6 µg/mL ([1]; pH 4)	half-life at 14.6 µg/mL ([1]; pH 7.4)	half-life at 14.6 µg/mL ([1]; pH 9)	GI50 (M14; [3])	GI50 (SF-268; [4])	GI50 (SNB-75; [5])	GI50 (MALME-3M; [6])	GI50 (SW-620; [7])	GI50 (MDA-MB-435; [8])	GI50 (786-0; [9])	GI50 (T-47D; [10])	GI50 (HL-60(TB))	further results
C=CC1C(=O)N(c2cc(OC)c(OC)c(OC)c2)C1c1ccc(OC)cc1 (centres unmarked) [Compound 7h, 4-(4-Methoxyphenyl)-1-(3,4,5-trimethoxyphenyl)-3-vinylazetidin-2-one]	34.2 nM	25.2 nM	47.6 nM	37.2 nM	73 nM	40.2 nM	22.6 nM														GI50 (786-0; 786-0): 33.9 nM; GI50 (T-47D): 20500 nM
C=CC1C(=O)N(c2cc(OC)c(OC)c(OC)c2)C1c1ccc(OC)c(O)c1 (centres unmarked) [Compound 7s, 4-[3-Hydroxy-4-methoxyphenyl]-1-(3,4,5-trimethoxyphenyl)-3-vinylazetidin-2-one]								15.6 nM	> 24 h	> 24 h	> 24 h	< 10 nM	< 10 nM	15.3 nM	28.3 nM	< 10 nM	< 10 nM	27.3 nM	29.9 nM		
C=CC1C(=O)N(c2cc(OC)c(OC)c(OC)c2)C1c1ccc(OC)c(N)c1 (centres unmarked) [Compound 7t, 4-(3-Amino-4-methoxyphenyl)-1-(3,4,5-trimethoxyphenyl)-3-vinylazetidin-2-one]	36.2 nM	27.2 nM	54.6 nM	30.1 nM	> 100000 nM	40.5 nM	< 10 nM													13.7 nM	GI50 (RPMI-8226; RPMI-8226): < 10 nM; GI50 (OVCAR-8; OVCAR-8): 14.8 nM; GI50 (786-0; 786-0): 34.6 nM
C=CC1C(=O)N(c2cc(OC)c(OC)c(OC)c2)C1c1ccc(OC)c(OP(=O)(O)O)c1 (centres unmarked) [Compound 17b, 2-Methoxy-5-(1-(3,4,5-trimethoxyphenyl)-4-oxo-3-vinylazetidin-2-yl)phenyl dihydrogen phosphate]								34.3 nM	> 24 h	> 24 h	> 24 h	748 nM	88.4 nM	36.5 nM	54500 nM	55.2 nM	21 nM	229 nM	> 100000 nM	27.3 nM	GI50 (RPMI-8226; [11]): 80.2 nM; GI50 (OVCAR-8; [12]): 44.2 nM
CCC1C(=O)N(c2cc(OC)c(OC)c(OC)c2)C1c1ccc(OC)c(OP(=O)(O)O)c1 (centres unmarked) [Compound 17c, 5-(3-Ethyl-1-(3,4,5-trimethoxyphenyl)-4-oxoazetidin-2-yl)-2-methoxyphenyl dihydrogen phosphate]								31.3 nM	> 24 h	> 24 h	> 24 h	31.7 nM	43.3 nM	23.7 nM	71400 nM	37.9 nM	12.8 nM	44.5 nM	> 100000 nM	28.8 nM	GI50 (RPMI-8226; [11]): 48.2 nM; GI50 (OVCAR-8; [12]): 32.7 nM
